Experimental data from paper PMC11320734 (ACS Pharmacology & Translational Science, 2024).
“And” between values parts separate entries of the source, which are not always exact repeats. Equal entries are not always repeated. Where two headings read alike, the source gives them in different places.

Assays:
Microsomal clearance [1] = type: in vitro ADME; settings: human, human microsomes; Table 1
TRPA1 = TRPA1 (Homo sapiens, UniProt O75762); experiment: Endocannabinoid target profiling: TRPA1; settings: Table S1; read-out: TRPA1 (Ki, IC50)
human wild type CB2R [2] = target: T1, human wild type CB2R (Homo sapiens, UniProt P34972); experiment: β-arrestin2 recruitment assay (Pathhunter); type: cell-based; design: host or cells: CHO cells (Pathhunter)
[3] = Single-dose pharmacokinetics in mice; type: in vivo; settings: mouse, plasma
Method: (§1) To characterize the pharmacokinetic behavior of RNB-61, studies in rodents were conducted at the in vivo facility of F. Hoffmann-La Roche Ltd. (Basel, Switzerland). The plasma-concentration time profile was studied in rodents after single-dose RNB-61 administration by oral gavage (p.o. microsuspension excipients 7.5% gelatin/0.62% NaCl) and intravenous bolus injection (i.v. solution, excipients NMP:NaCl (30:70)). Three groups of male Wistar rats (n = 2 per group) were administered RNB-61 either at 1 mg kg^–1 i.v., 3 mg kg^–1 p.o., or 26 mg kg^–1 p.o. Plasma samples were drawn at 0.083, 0.25, 0.5, 1, 2, 4, 8, and 24 postdose in the i.v. group and at 0.25, 0.5, 0.75, 1.5, 3, 5, 8, and 24 h postdose in the p.o. groups. The samples were analyzed for RNB-61 concentration by LC/MS-MS. For the LC/MS-MS analysis, and the samples were prepared by adding 100 uL to 400 uL ACN with ISTD (100 ng/mL Bosantan in ACN/MeOH 1/1), stirring, and centrifuging (4000 rpm, 65’). 100 uL of the supernatant were pipetted and diluted with 400 μL H2O at pH 3. The analytes were separated on a Restek C18 column (5 μm, 1.0 × 3 mm). The mobile phase consisted of water containing 0.1% HCOOH as solvent A and ACN containing 0.1% HCOOH as solvent B. The gradient curve starting with 5% B was changed to 90% B between 0.4 and 0.6 min and further increased to 95% B between 0.6 and 1.2 min. This was maintained until 1.4 min and then reduced and kept at 5% B between 1.45 and 2.0 min. The mass spectrometer was operated in the positive mode. All LC-MS/MS was done using the Agilent RapidFire Analyzer software (version 4.3). The pharmacokinetic parameters were estimated by noncompartmental analysis in the Certara WinNonlin software (version 5.3). A similar study design was run in mice with three groups receiving 2 mg kg^–1 i.v., 4 mg kg^–1 p.o., or 26 mg kg^–1 p.o., and plasma sampling occurring in a composite profile (n = 2 for each time point) up to 7 or 24 h postdose. Male C57/BL6 mice (n = 5 per group) were used to study the influence of P-gp efflux on brain penetration. Two groups of mice were administered RNB-61 by i.v. bolus injection at 1 mg kg^–1 (2 groups). In order to block P-gp activity, an i.v. bolus of 5 mg kg^–1 tariquidar[46] was injected into one group 30 min prior to RNB-61. Plasma was collected at 0.083, 0.25, 0.5, 2, 4, and 7 h postdose in a composite profile. Brain, CSF, and vitreous body were collected at terminal time points 0.5, 2, 4, and 7 h postdose.

human Q63R variant CB2R = target: T2, human Q63R variant CB2R (Homo sapiens, UniProt P34972, Q63R); experiment: cAMP assay in CHO cells; type: cell-based; settings: mean ± SD
T2 construct: expressed in transfected cells; host or cells: CHO cells

[4] = Fraction unbound in plasma; type: in vitro ADME
Text: Table 3 Physicochemical and ADMET Properties of RNB-61 | column: 481.556

[5] = Rodent single-dose PK studies (summary rats and mice); type: in vivo
Method: as §1, with “Two groups of mice were administered RNB-61 by i.v. bolus injection at 1 mg kg^–1 (2 groups). In order to block P-gp activity, an i.v. bolus of 5 mg kg^–1 tariquidar[46] was injected into one group 30 min prior to RNB-61. Plasma was collected at 0.083, 0.25, 0.5, 2, 4, and 7 h postdose in a composite profile. Brain, CSF, and vitreous body were collected at terminal time points 0.5, 2, 4, and 7 h postdose.” left out

pKa = type: physicochemical; settings: basic nitrogen N1 of the pyrazole ring
Microsomal clearance [6] = type: in vitro ADME; settings: rat, rat microsomes
human wild type CB2R [7] = target: T1, human wild type CB2R; experiment: [35S]GTPγS binding assay (G-protein activation); type: biochemical; design: host or cells: CHO cells (Pathhunter)
[8] = expressed as percentage, compared with CP55,940

T1 sequence (P34972 whole entry): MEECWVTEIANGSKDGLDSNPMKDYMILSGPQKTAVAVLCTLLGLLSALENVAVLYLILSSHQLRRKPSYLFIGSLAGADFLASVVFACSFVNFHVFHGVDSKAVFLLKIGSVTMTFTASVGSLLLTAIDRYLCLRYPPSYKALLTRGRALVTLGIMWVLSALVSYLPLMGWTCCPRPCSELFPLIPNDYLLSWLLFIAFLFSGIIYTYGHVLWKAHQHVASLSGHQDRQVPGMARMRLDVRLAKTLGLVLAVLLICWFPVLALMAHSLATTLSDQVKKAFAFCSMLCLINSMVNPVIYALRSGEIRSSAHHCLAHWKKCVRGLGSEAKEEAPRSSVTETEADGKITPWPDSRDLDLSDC
T2 sequence (P34972 whole entry Q63R): as the sequence (P34972 whole entry) above, with Q63R counted along it
Sequence of TRPA1 (O75762 whole entry, species assumed): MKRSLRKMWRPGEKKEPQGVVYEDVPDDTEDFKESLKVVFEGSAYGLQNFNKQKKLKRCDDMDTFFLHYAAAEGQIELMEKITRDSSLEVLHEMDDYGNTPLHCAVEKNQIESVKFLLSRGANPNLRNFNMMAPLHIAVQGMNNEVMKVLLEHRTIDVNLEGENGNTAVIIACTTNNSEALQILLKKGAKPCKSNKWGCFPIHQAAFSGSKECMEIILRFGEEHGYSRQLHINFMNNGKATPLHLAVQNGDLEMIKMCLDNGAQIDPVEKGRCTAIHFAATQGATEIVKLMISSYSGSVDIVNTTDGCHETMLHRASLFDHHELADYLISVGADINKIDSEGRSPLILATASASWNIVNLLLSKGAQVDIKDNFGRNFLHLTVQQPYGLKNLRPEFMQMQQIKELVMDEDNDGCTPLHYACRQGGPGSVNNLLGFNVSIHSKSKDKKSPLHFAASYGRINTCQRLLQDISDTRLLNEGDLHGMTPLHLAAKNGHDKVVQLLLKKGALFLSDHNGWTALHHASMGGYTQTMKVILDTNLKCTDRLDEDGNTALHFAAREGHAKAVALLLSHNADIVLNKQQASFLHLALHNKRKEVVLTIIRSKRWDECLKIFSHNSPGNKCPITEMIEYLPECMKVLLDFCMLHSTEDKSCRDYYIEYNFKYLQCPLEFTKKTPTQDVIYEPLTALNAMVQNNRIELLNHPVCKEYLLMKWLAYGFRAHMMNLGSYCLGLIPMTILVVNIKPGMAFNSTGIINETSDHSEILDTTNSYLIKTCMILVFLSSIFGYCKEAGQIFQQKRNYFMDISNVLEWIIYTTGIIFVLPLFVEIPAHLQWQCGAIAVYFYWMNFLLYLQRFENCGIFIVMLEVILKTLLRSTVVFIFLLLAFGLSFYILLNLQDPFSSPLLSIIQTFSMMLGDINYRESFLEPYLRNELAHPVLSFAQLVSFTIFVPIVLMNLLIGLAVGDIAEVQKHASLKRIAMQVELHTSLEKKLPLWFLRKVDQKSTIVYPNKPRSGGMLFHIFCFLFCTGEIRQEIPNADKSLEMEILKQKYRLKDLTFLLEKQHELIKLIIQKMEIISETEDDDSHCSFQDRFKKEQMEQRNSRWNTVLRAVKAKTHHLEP

What does the source list for `Cn1c(C(C)(C)C)cc(=NC(=O)c2cc(C(F)(F)F)ccc2OCC(C)(C)O)n1CC1CCC1` [RNB-61]?
microsomal CLint (Microsomal clearance [1]): ≤ 10 µL/min/mg; IC50 (TRPA1): > 50000 nM; EC50 (human wild type CB2R [2]; Figure 2, normalized to 1 μM CP55940): 13.3 ± 1.9 nM; Emax (human wild type CB2R [2]; percentage normalized to 1 μM CP55940, read-out: Emax β-arrestin2 recruitment): 80%; Emax (human wild type CB2R [2]; relative to CP55,940, text, read-out: Emax of total β-arrestin2 recruitment): ~80%; AUC(0-inf) ([3]; iv, 2 mg kg^–1 i.v.): 8.63 µg·h/mL; Cmax ([3]; iv, 2 mg kg^–1 i.v.): 1.17 µg/mL; Tmax ([3]; iv, 2 mg kg^–1 i.v.): 0.25 h; clearance ([3]; iv, 2 mg kg^–1 i.v.): 0.234 L/h/kg; half-life ([3]; iv, 2 mg kg^–1 i.v.): 7.7 h; Vd ([3]; iv, 2 mg kg^–1 i.v., read-out: Vss): 2.4 L/kg; AUC(0-inf) ([3]; po, 4 mg kg^–1 p.o.): 9.3 µg·h/mL; Cmax ([3]; po, 4 mg kg^–1 p.o.): 0.843 µg/mL; Tmax ([3]; po, 4 mg kg^–1 p.o.): 2 h; bioavailability ([3]; po, 4 mg kg^–1 p.o.): 54%; half-life ([3]; po, 4 mg kg^–1 p.o.): 6.4 h; AUC(0-inf) ([3]; po, 26 mg kg^–1 p.o.): 47.3 µg·h/mL; Cmax ([3]; po, 26 mg kg^–1 p.o.): 4.37 µg/mL; Tmax ([3]; po, 26 mg kg^–1 p.o.): 2 h; bioavailability ([3]; po, 26 mg kg^–1 p.o.): 42%; half-life ([3]; po, 26 mg kg^–1 p.o.): 4.3 h; EC50 (human Q63R variant CB2R): 0.29 ± 0.07 nM; fraction unbound ([4]; human): 0.019; fraction unbound ([4]; mouse): 0.019; fraction unbound ([4]; rat): 0.017; Vd ([5]; Wistar (rats), mouse strain not stated for this study, rat, mouse, plasma, intravenous, range rats and mice, read-out: volume of distribution at steady state (Vss)): 1.6 to 2.4 L/kg; half-life ([5]; Wistar (rats), mouse strain not stated for this study, rat, mouse, plasma, in rats and mice, read-out: terminal plasma half-life): 4 to 8 h; plasma clearance as share of hepatic blood flow ([5]; rodent single-dose PK): ~5 % of hepatic blood flow; pKa (pKa): 7.33; pKa (pKa; read-out: pKa): 7.37; microsomal CLint (Microsomal clearance [6]; Table 1): < 10 µL/min/mg; microsomal CLint (Microsomal clearance [6]; Table 3): ≤ 10 µL/min/mg; EC50 (human wild type CB2R [7]; Figure 2): 0.33 nM and 1.65 nM; Emax (human wild type CB2R [7]; [8]): 100%; Emax [35S]GTPγS binding (human wild type CB2R [7]; [8]): same efficacy (Emax) as CP55,940
